From ChEMBL document CHEMBL5042512 (Eur J Med Chem, 2022)
The source made the active and inactive calls. The rule behind the calls is not given here.

Tests used:
KYSE-450 [1] = test: Antiproliferative activity against human KYSE-450 cells assessed as cell growth inhibition measured after 48 hrs by CCK8 assay; type: functional, cell-based; details: KYSE-450, 48 h
Tubulin (Homo sapiens) = Tubulin (Homo sapiens) (UniProt P68371+Q9H4B7+P0DPH7+P68366+Q13509+Q71U36+P04350+Q3ZCM7+P07437+P68363+Q9BQE3+Q6PEY2+Q13885+Q9BVA1+Q9BUF5); test: Inhibition of tubulin polymerization in human KYSE-450 cells assessed as microtubule assembly at 0.1 uM measured after 48 hrs by immunofluorescence assay; type: cell-based
KYSE-30 [2] = test: Antiproliferative activity against human KYSE-30 cells assessed as inhibition of colony formation at 40 to 60 nM for 7 days by crystal violet staining based analysis; type: functional, cell-based; details: dose 40-60 nM, time 7.0 day
KYSE-30 [3] = test: Up regulation of p-Histone H3 protein expression in human KYSE-30 cells at 80 to 100 nM for 48 hrs by western blot analysis; type: functional, cell-based; details: dose 80-100 nM
KYSE-450 [4] = test: Induction of apoptosis in human KYSE-450 cells assessed as apoptotic cells at 80 nM measured after 48 hrs by annexin-V-FITC and PI staining based flow cytometry analysis (reference value: 8.1667 %); type: functional
KYSE-30 [5] = test: Induction of apoptosis in human KYSE-30 cells assessed as apoptotic cells at 100 nM measured after 48 hrs by annexin-V-FITC and PI staining based flow cytometry analysis (reference value: 8.1667 %); type: functional
KYSE-450 [6] = test: Induction of apoptosis in human KYSE-450 cells assessed as apoptotic cells at 100 nM measured after 48 hrs by annexin-V-FITC and PI staining based flow cytometry analysis (reference value: 8.1667 %); type: functional
KYSE-30 [7] = test: Induction of mitochondrial membrane potential loss in human KYSE-30 cells assessed as upregulation of Bax protein at 80 to 100 nM measured after 48 hrs by western blot analysis; type: functional, cell-based; details: dose 80-100 nM
KYSE-30 [8] = test: Induction of mitochondrial membrane potential loss in human KYSE-30 cells assessed as Bcl-xL expression at 80 to 100 nM measured after 48 hrs by western blot analysis; type: functional, cell-based; details: dose 80-100 nM
KYSE-450 [9] = test: Induction of mitochondrial membrane potential loss in human KYSE-450 cells assessed as Mcl-1 expression at 80 to 100 nM measured after 48 hrs by western blot analysis; type: functional, cell-based; details: dose 80-100 nM
KYSE-450 [10] = test: Antiproliferative activity against human KYSE-450 cells assessed as cell viability measured up to 48 hrs by CCK8 assay; type: functional, cell-based; details: time hrs <=48, TDE = time-dependent effect
KYSE-30 [11] = test: Induction of apoptosis in human KYSE-30 cells assessed as PARP cleavage at 80 to 100 nM measured after 48 hrs by western blot analysis; type: functional, cell-based; details: dose 80-100 nM

inhibition (Tubulin (Homo sapiens)): Active
SMILES: COc1ccc(CN(C(=O)CSC(=S)N2CCN(C(=O)OC(C)(C)C)CC2)c2cc(OC)c(OC)c(OC)c2)cc1O
IC50 (KYSE-450 [1]): 76 nM
inhibition (KYSE-30 [2]): Active
Activity (KYSE-30 [3]): Dose-Dependent Effect
Activity (KYSE-450 [4]): 34.0333%
Activity (KYSE-30 [5]): 38.633%
Activity (KYSE-450 [6]): 57.3667%
Activity (KYSE-30 [7]): Dose-Dependent Effect
Activity (KYSE-30 [8]): inactive
Activity (KYSE-450 [9]): inactive
inhibition (KYSE-450 [10]): Tde
Activity (KYSE-30 [11]): Active
